Assay results from patent publication EP0638566B1, “5-Aminoflavone derivatives, their preparation and their use as antibacterial, anti-estrogenic and/or antitumor agent” (KYOWA HAKKO KOGYO CO., LTD., priority 1993, dated 1995).
≈ marks a conversion by molar mass, not a printed value. Structures can show the parent of a compound that is named as a salt. Where two headings read alike, the source gives them in different places.

Tests used:
[1] = test system: Human mammary cancer MCF-7 cell; experiment: Human mammary cancer MCF-7 cell growth inhibition test (neutral red); format: cell-based
Procedure: Human mammary cancer MCF-7 cell growth inhibition test
Each 0.1 ml of MCF-7 cells which had been prepared to 5 x 10^4/ml using a medium (referred to as Medium B hereinafter) prepared by adding 10% bovine fetal serum, 10^-8M estradiol (manufactured by Sigma), 100 units/ml penicillin and 100 µg/ml streptomycin to RPMI1640 medium was distributed in each well of 96 well-microtiter plate. […] Supernatant was removed, each 0.1 ml of Medium B containing 0.02% neutral red was added to the residue, the mixture was cultured at 37 °C for 1 hour in a CO2 gas incubator and the cells were stained by neutral red dye. Supernatant was removed and the residue was washed once with a physiological saline. Then, the dye was extracted with 0.001N hydrochloric acid/30% ethanol and the absorbance at 550 nm was determined with a microplatereader.

[2] = test system: uterus weight of immature mice; experiment: Effect against the increase in uterus weight of immature mice; format: in vivo, female BALB/c mice; settings: for Weight of uterus: dose 5 mg/kg, oral, three days, uteri isolated after four days
Procedure: The effect against the increase in uterus weight of immature mice
Immature female BALB/c mice, 4 weeks age, were divided into two groups and 50 µg of estradiol was subcutaneously administered to the animals of one group in the chest. The test compounds were repeatedly administered orally to each group (8 animals per group) for three days since the date of estradiol administration. After four days, the uteri were isolated and the weight thereof was measured.
In Table 2, "estradiol (-)" represents an estradiol-untreated group and "estradiol (+)" represents an estradiol-treated group.

[3] = test system: estrogen-dependent human mammary cancer Br-10; experiment: Antitumor effects against Br-10 tumor transplanted in nude mice; format: in vivo, female BALB/c-nu/nu mice; settings: 5 days per week for two to four weeks
Source text: Antitumor effects against estrogen-dependent human mammary cancer Br-10
The tumor fragment (2mm x 2mm x 2mm) of human hormone dependent mammary cancer Br-10 was transplanted subcutaneously in the flank of female BALB/c-nu/nu mice (Nihon Crea), 7 to 9 weeks age. […] 3 to 4 Weeks after transplantation, mice the tumor volume of which increased to 30 to 150 mm^3 were selected, and the test compounds were orally administered repeatedly to the groups (5 animals per group) for 5 days per a week, for total two to four weeks. Estradiol propionate was additionally administered on the date of initial administration of the test compounds and 14 days after the administration. Length and breadth of the tumor were determined every day, and the tumor volumes were calculated by means of ellipsoid approximation according to the above equation. The tumor volume at initial administration (Vo) and on the day of judgement (V) was calculated, and the tumor growth rate (V/Vo) was calculated. T/C value was obtained as the ratio of V/Vo value of treated group relative to that of control group.

[4] = test system: estrogen-dependent human mammary cancer MCF-7; experiment: Antitumor effects against MCF-7 tumor transplanted in nude mice; format: in vivo, female BALB/c-nu/nu mice; settings: Mus musculus, MCF7, 5 days per week for two weeks, read-out: T/C; for response vs control in vivo at 50 mg/kg: dose 50 mg/kg oral
Source text: Antitumor effects against estrogen-dependent human mammary cancer MCF-7
The tumor fragment (2mm x 2mm x 2mm) of human hormone dependent mammary cancer MCF-7 was transplanted subcutaneously in the flank of female BALB/c-nu/nu mice (Nihon Crea), 7 to 9 weeks age. […] 3 to 4 Weeks after transplantation, mice of the tumor volume of 25 to 200 mm^3 were selected, and the test compounds were orally administered repeatedly to the groups (5 animals per group) for 5 days per a week, for total two weeks. In addition, estradiol propionate was administered again on the date of initial administration of the test compounds. Length and width of the tumor were determined every day, and the tumor volumes were calculated by means of ellipsoid approximation according to the following equation: […] [formula] The tumor volume at initial administration (Vo) and on the day of judgement (V) was calculated, and the tumor growth rate (V/Vo) was calculated. T/C value was obtained as the ratio of V/Vo value of treated group relative to that of control group.

[5] = test system: Bacillus subtilis #10107; experiment: Antibacterial activity, agar dilution method; format: cell-based
Procedure: Antibacterial activity of compound (I) against Bacillus subtilis #10107 [Minimum Inhibition Concentration(MIC; µg/ml)] is shown in Table 6. Minimum Inhibition Concentration was determined by agar dilution method at pH 7.0.

[6] = Minimum Inhibition Concentration, agar dilution method at pH 7.0, read-out: MIC
[7] = MCF7, MCF-7 cells, medium with 10^-8M estradiol, 72 hours, neutral red, absorbance at 550 nm, read-out: IC50

CSc1c(F)c(N)c2c(=O)cc(-c3ccc(N)c(F)c3)oc2c1F [Compound 10, 5-Amino-2-(4-amino-3-fluorophenyl)-6,8-difluoro-7-methylthio-4H-1-benzopyran-4-one]
IC50 ([1]; MCF7, 72 h): 190 nM

CC/C(=C(\c1ccccc1)c1ccc(OCCN(C)C)cc1)c1ccccc1 [Tamoxifen]
Weight of uterus ([2]; estradiol (+) (50 µg estradiol s.c.)): 47 mg | Weight of uterus ([2]; estradiol (-) (estradiol-untreated group)): 49 mg | anti-estrogenic activity (increase in the uterus weight observed in an estradiol-treated group) ([2]; result in words, estradiol-treated group, oral administration): weak anti-estrogenic activity | weight of the uterus in an estradiol-untreated group ([2]; result in words, estradiol-untreated group): significantly increases the weight of the uterus | T/C ([3]; dose 5 mg/kg oral, judgement day 25): 0.58 | response vs control in vivo at 5 mg/kg ([4]; dose 5 mg/kg oral, judgement day 22): 25%

CCN(CC)CCCNc1c(F)c(C)c(F)c2oc(-c3ccc(N)c(F)c3)cc(=O)c12 [Compound 38, 2-(4-Amino-3-fluorophenyl)-5-[3-(diethylamino)propylamino]-6,8-difluoro-7-methyl-4H-1-benzopyran-4-one]
MIC [5, 6]: 13 µg/mL (≈ 30 µM)

NCc1c(F)c(N)c2c(=O)cc(-c3ccc(N)c(F)c3)oc2c1F [Compound 41, 5-Amino-2-(4-amino-3-fluorophenyl)-7-aminomethyl-6,8-difluoro-4H-1-benzopyran-4-one]
IC50 ([1]; MCF7, 72 h): 26 nM | response vs control in vivo at 50 mg/kg ([4]; judgement day 18): 1.1% | MIC ([5]; pH 7): 3.26 µg/mL (≈ 9.72 µM)

COc1c(F)c(N)c2c(=O)cc(-c3ccc(N)c(F)c3)oc2c1F [Compound 8, 5-Amino-2-(4-amino-3-fluorophenyl)-6,8-difluoro-7-methoxy-4H-1-benzopyran-4-one]
IC50 ([1]; MCF7, 72 h): 100 nM

CN(C)CCCNc1c(F)c(N)c2c(=O)cc(-c3ccc(N)c(F)c3)oc2c1F [Compound 18, 5-Amino-2-(4-amino-3-fluorophenyl)-7-[3-(dimethylamino)propylamino]-6,8-difluoro-4H-1-benzopyran-4-one]
MIC [5, 6]: 52.1 µg/mL (≈ 128 µM)

CCOC(=O)c1c(F)c(N)c2c(=O)cc(-c3ccc(N)c(F)c3)oc2c1F [Compound 13, 5-Amino-2-(4-amino-3-fluorophenyl)-7-ethoxycarbonyl-6,8-difluoro-4H-1-benzopyran-4-one]
IC50 [1, 7]: 1400 nM

COCc1c(F)c(N)c2c(=O)cc(-c3ccc(N)c(F)c3)oc2c1F [Compound 43, 5-Amino-2-(4-amino-3-fluorophenyl)-6,8-difluoro-7-methoxymethyl-4H-1-benzopyran-4-one]
IC50 [1, 7]: 46 nM

Cc1c(F)c(NCCCN(C)C)c2c(=O)cc(-c3ccc(N)c(F)c3)oc2c1F [Compound 37, 2-(4-Amino-3-fluorophenyl)-5-[3-(dimethylamino)propylamino]-6,8-difluoro-7-methyl-4H-1-benzopyran-4-one]
MIC [5, 6]: 13 µg/mL (≈ 32.1 µM)

CN(C)Cc1c(F)c(N)c2c(=O)cc(-c3ccc(N)c(F)c3)oc2c1F [Compound 42, Hydrochloride of 5-amino-2-(4-amino-3-fluorophenyl)-7-dimethylaminomethyl-6,8-difluoro-4H-1-benzopyran-4-one]
IC50 ([1]; MCF7, 72 h): 72 nM

Nc1ccc(-c2cc(=O)c3c(N)c(F)c(Br)c(F)c3o2)cc1F [Compound 6, 5-Amino-2-(4-amino-3-fluorophenyl)-7-bromo-6,8-difluoro-4H-1-benzopyran-4-one]
IC50 [1, 7]: 160 nM | response vs control in vivo at 50 mg/kg ([4]; judgement day 21): 54%

Nc1ccc(-c2cc(=O)c3c(N)c(F)c(CO)c(F)c3o2)cc1F [Compound 39, 5-Amino-2-(4-amino-3-fluorophenyl)-6,8-difluoro-7-hydroxymethyl-4H-1-benzopyran-4-one]
IC50 ([1]; MCF7, 72 h): 62 nM | response vs control in vivo at 50 mg/kg ([4]; judgement day 14): 1.6%

CN(C)c1c(F)c(N)c2c(=O)cc(-c3ccc(N)c(F)c3)oc2c1F [Compound 17, 5-Amino-2-(4-amino-3-fluorophenyl)-7-dimethylamino-6,8-difluoro-4H-1-benzopyran-4-one]
IC50 [1, 7]: 39 nM | T/C ([3]; dose 25 mg/kg oral, judgement day 18): 0.22

Nc1ccc(-c2cc(=O)c3c(N)c(F)c(Cl)c(F)c3o2)cc1F [Compound 5, 5-Amino-2-(4-amino-3-fluorophenyl)-7-chloro-6,8-difluoro-4H-1-benzopyran-4-one]
IC50 [1, 7]: 210 nM

CCc1cc(-c2cc(=O)c3c(N)c(F)c(C)c(F)c3o2)ccc1N [Compound 26, 5-Amino-2-(4-amino-3-ethylphenyl)-6,8-difluoro-7-methyl-4H-1-benzopyran-4-one]
IC50 [1, 7]: 65 nM

CN(C)CCOc1c(F)c(N)c2c(=O)cc(-c3ccc(N)c(F)c3)oc2c1F [Compound 9, 5-Amino-2-(4-amino-3-fluorophenyl)-7-(2-dimethylaminoethoxy)-6,8-difluoro-4H-1-benzopyran-4-one]
IC50 ([1]; MCF7, 72 h): 1400 nM | response vs control in vivo at 50 mg/kg ([4]; judgement day 15): 42% | MIC ([5]; pH 7): 52.1 µg/mL (≈ 132 µM)

Cc1c(F)c(N)c2c(=O)cc(-c3ccc(N)c(Cl)c3)oc2c1F [Compound 24, 5-Amino-2-(4-amino-3-chlorophenyl)-6,8-difluoro-7-methyl-4H-1-benzopyran-4-one]
IC50 [1, 7]: 92 nM

CC(=O)c1c(F)c(N)c2c(=O)cc(-c3ccc(N)c(F)c3)oc2c1F [Compound 22, 7-Acetyl-5-amino-2-(4-amino-3-fluorophenyl)-6,8-difluoro-4H-1-benzopyran-4-one]
MIC [5, 6]: 13 µg/mL (≈ 37.3 µM)

CC(=O)OCc1c(F)c(N)c2c(=O)cc(-c3ccc(N)c(F)c3)oc2c1F [Compound 44, 7-Acetoxymethyl-5-amino-2-(4-amino-3-fluorophenyl)-6,8-difluoro-4H-1-benzopyran-4-one]
IC50 ([1]; MCF7, 72 h): 26 nM | response vs control in vivo at 25 mg/kg ([4]; dose 25 mg/kg oral, judgement day 14): 6.1%

Nc1ccc(-c2cc(=O)c3c(N)c(F)c(N)c(F)c3o2)cc1F [Compound 16, 5,7-Diamino-2-(4-amino-3-fluorophenyl)-6,8-difluoro-4H-1-benzopyran-4-one]
IC50 ([1]; MCF7, 72 h): 7.7 nM | T/C ([3]; dose 12.5 mg/kg oral, judgement day 18): 0.24 | response vs control in vivo at 12.5 mg/kg ([4]; dose 12.5 mg/kg oral, judgement day 22): 18%

C[S+]([O-])c1c(F)c(N)c2c(=O)cc(-c3ccc(N)c(F)c3)oc2c1F (centres unmarked) [Compound 11, 5-Amino-2-(4-amino-3-fluorophenyl)-6,8-difluoro-7-methylsulfinyl-4H-1-benzopyran-4-one]
IC50 [1, 7]: 2500 nM

CCc1c(F)c(N)c2c(=O)cc(-c3ccc(N)c(F)c3)oc2c1F [Compound 2, 5-Amino-2-(4-amino-3-fluorophenyl)-7-ethyl-6,8-difluoro-4H-1-benzopyran-4-one]
IC50 [1, 7]: 130 nM

Nc1ccc(-c2cc(=O)c3c(N)c(F)c(F)c(F)c3o2)cc1F [Compound 34, 5-Amino-2-(4-amino-3-fluorophenyl)-6,7,8-trifluoro-4H-1-benzopyran-4-one]
IC50 [1, 7]: 220 nM
